Laboratory results from ChEMBL document CHEMBL1201862, “PubChem BioAssay data set” (2004).
Where “and” joins values, the source holds several entries; their conditions need not be identical. Equal values may be shown once. Where a name gives a salt, the structure may show the parent alone.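 Each compound was tested at five concentrations against cells in 96-well plates for 48 hours. GI50: concentration for 50% inhibition of growth.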 Calls of active or inactive are those of the source. Cut-off read from the data, not from the text of the source: active = GI50 up to about 1.1 µM and inactive = higher.

Experiments:
Assay in all cases: growth of human tumour cells (NCI), 48 h
EKVX = tested on: EKVX
HCT-116 = tested on: HCT-116
OVCAR-3 = tested on: OVCAR-3
SW-620 = tested on: SW-620
SF-295 = tested on: SF-295
OVCAR-5 = tested on: OVCAR-5
HOP-62 = tested on: HOP-62
COLO 205 = tested on: COLO 205
CAKI-1 = tested on: CAKI-1
SNB-75 = tested on: SNB-75
HT-29 = tested on: HT-29
UACC-257 = tested on: UACC-257
UO-31 = tested on: UO-31
UACC-62 = tested on: UACC-62
SK-MEL-28 = tested on: SK-MEL-28
SF-268 = tested on: SF-268
KM12 = tested on: KM12
NCI-H23 = tested on: NCI-H23
OVCAR-4 = tested on: OVCAR-4
IGROV-1 = tested on: IGROV-1

Structure (SMILES) | GI50 (EKVX) | GI50 (HCT-116) | GI50 (OVCAR-3) | GI50 (SW-620) | GI50 (SF-295) | GI50 (OVCAR-5) | GI50 (HOP-62) | GI50 (COLO 205) | GI50 (CAKI-1) | GI50 (SNB-75) | GI50 (HT-29) | GI50 (UACC-257) | GI50 (UO-31) | GI50 (UACC-62) | GI50 (SK-MEL-28) | GI50 (SF-268) | GI50 (KM12) | GI50 (NCI-H23) | GI50 (OVCAR-4) | GI50 (IGROV-1)
Nc1ccc2cc3ccc(N)cc3nc2c1 [PROFLAVINE SULFATE] | 1.24 µM (inactive) | 366 nM (active) and 405 nM (active) | 2.77 µM (inactive) and 1.51 µM (inactive) | 494 nM (active) and 397 nM (active) | 2.45 µM (inactive) and 1.94 µM (inactive) | 3.05 µM (inactive) | 2.47 µM (inactive) and 2.21 µM (inactive) | 561 nM (active) and 543 nM (active) | 2.18 µM (inactive) and 1.82 µM (inactive) | 1.59 µM (inactive) and 1.16 µM (inactive) | 953 nM (active) and 668 nM (active) | 1.87 µM (inactive) and 1.49 µM (inactive) | 690 nM (active) and 652 nM (active) | 1.56 µM (inactive) and 1.6 µM (inactive) | 2.45 µM (inactive) and 1.88 µM (inactive) | 1.32 µM (inactive) and 2.19 µM (inactive) | – | – | – | –
CC1CC2C3CC(F)C4=CC(=O)C=CC4(C)C3(F)C(O)CC2(C)C1(O)C(=O)COC(=O)C(C)(C)C (stereo unspecified) | > 100 µM (inactive) | > 100 µM (inactive) | > 100 µM (inactive) | > 100 µM (inactive) | 61.7 µM (inactive) | > 100 µM (inactive) | 75.7 µM (inactive) | > 100 µM (inactive) | > 100 µM (inactive) | 82.2 µM (inactive) | > 100 µM (inactive) | 57.9 µM (inactive) | > 100 µM (inactive) | > 100 µM (inactive) | 37.2 µM (inactive) | 64.4 µM (inactive) | > 100 µM (inactive) | > 100 µM (inactive) | 27.4 µM (inactive) | 64.1 µM (inactive)
O=C(O)CN1CCCC(Cc2c[nH]c3ccccc23)C1 (stereo unspecified) | > 100 µM (inactive) | – | > 100 µM (inactive) | > 100 µM (inactive) | > 100 µM (inactive) | > 100 µM (inactive) | > 100 µM (inactive) | > 100 µM (inactive) | > 100 µM (inactive) | > 100 µM (inactive) | – | > 100 µM (inactive) | > 100 µM (inactive) | > 100 µM (inactive) | > 100 µM (inactive) | > 100 µM (inactive) | > 100 µM (inactive) | > 100 µM (inactive) | > 100 µM (inactive) | > 100 µM (inactive)
CC(=O)N/C(=C\c1ccc(/C=C(\NC(C)=O)C2=NC3C(=O)c4ccccc4C(=O)C3N2)cc1)C1=NC2C(=O)c3ccccc3C(=O)C2N1 (stereo unspecified) | 15.6 µM (inactive) | 14.4 µM (inactive) | 49.3 µM (inactive) | 1.84 µM (inactive) | 68.2 µM (inactive) | 75 µM (inactive) | – | 93.1 µM (inactive) | 3.27 µM (inactive) | 6.98 µM (inactive) | > 100 µM (inactive) | > 100 µM (inactive) | 2.97 µM (inactive) | 25.8 µM (inactive) | > 100 µM (inactive) | 5.7 µM (inactive) | 3.63 µM (inactive) | 26.7 µM (inactive) | > 100 µM (inactive) | 8.47 µM (inactive)
O=C(O)c1cccc2cccc(-c3c4ccc(=O)cc-4oc4cc(O)ccc34)c12 | > 100 µM (inactive) | > 100 µM (inactive) | 21.3 µM (inactive) | 49.7 µM (inactive) | 34.8 µM (inactive) | > 100 µM (inactive) | 16.4 µM (inactive) | 98.6 µM (inactive) | > 100 µM (inactive) | 60.1 µM (inactive) | > 100 µM (inactive) | > 100 µM (inactive) | > 100 µM (inactive) | > 100 µM (inactive) | > 100 µM (inactive) | > 100 µM (inactive) | > 100 µM (inactive) | > 100 µM (inactive) | > 100 µM (inactive) | 75 µM (inactive)
O=C1c2ccccc2C(=O)c2c1ccc1c2N=C(c2ccc(F)cc2)CC(c2ccc(Cl)c(Cl)c2)N1 (stereo unspecified) | 3.96 µM (inactive) | 11.5 µM (inactive) | – | 6.11 µM (inactive) | 14.6 µM (inactive) | 14.7 µM (inactive) | 22 µM (inactive) | 18.1 µM (inactive) | 3.27 µM (inactive) | 20.5 µM (inactive) | 13.5 µM (inactive) | 23.7 µM (inactive) | 10.8 µM (inactive) | 12.1 µM (inactive) | 19.3 µM (inactive) | 15.2 µM (inactive) | 6 µM (inactive) | 16.6 µM (inactive) | 19 µM (inactive) | 10.3 µM (inactive)
CSc1sc(=S)sc1SC | > 100 µM (inactive) | > 100 µM (inactive) | > 100 µM (inactive) | > 100 µM (inactive) | > 100 µM (inactive) | > 100 µM (inactive) | > 100 µM (inactive) | > 100 µM (inactive) | 1 µM (active) | 46.9 µM (inactive) | > 100 µM (inactive) | > 100 µM (inactive) | > 100 µM (inactive) | > 100 µM (inactive) | > 100 µM (inactive) | > 100 µM (inactive) | > 100 µM (inactive) | > 100 µM (inactive) | > 100 µM (inactive) | > 100 µM (inactive)
O=C1c2cccc3cc4ccccc4c(c23)C(=O)N1CCNCCN1C(=O)c2cccc3cc4ccccc4c(c23)C1=O | 0.587 µM (active) | 0.415 µM (active) | 0.484 µM (active) | 0.238 µM (active) | 0.243 µM (active) | 0.406 µM (active) | 1.04 µM (active) | 0.731 µM (active) | 0.245 µM (active) | 0.373 µM (active) | 0.351 µM (active) | 1.27 µM (inactive) | 0.277 µM (active) | 0.318 µM (active) | 0.592 µM (active) | 1.22 µM (inactive) | 3.93 µM (inactive) | 0.364 µM (active) | 0.625 µM (active) | 0.589 µM (active)
CCC/C=C/C=C\C(=O)O[C@@H]1[C@@H](C)[C@]2(O)[C@@H]3C=C(C)C(=O)[C@H]3CC(COC(C)=O)=C[C@H]2[C@@H]2C(C)(C)[C@]12OC(C)=O | 49.9 µM (inactive) | 20.4 µM (inactive) | 46.7 µM (inactive) | 11.2 µM (inactive) | 6.64 µM (inactive) | 66.5 µM (inactive) | 1.89 µM (inactive) | 1.74 µM (inactive) | 26.1 µM (inactive) | 57.7 µM (inactive) | 40 µM (inactive) | 42.9 µM (inactive) | 46.5 µM (inactive) | 35.2 µM (inactive) | 39.4 µM (inactive) | 39.7 µM (inactive) | 47.9 µM (inactive) | 33.7 µM (inactive) | 30.2 µM (inactive) | 48.4 µM (inactive)
CCOC(=O)CNC(=O)N(CC)C12CC3CC(CC(C3)C1)C2 | 157 µM (inactive) | 121 µM (inactive) | 114 µM (inactive) | 145 µM (inactive) | 136 µM (inactive) | 161 µM (inactive) | 128 µM (inactive) | 110 µM (inactive) | 147 µM (inactive) | 131 µM (inactive) | 132 µM (inactive) | 122 µM (inactive) | 149 µM (inactive) | 97.5 µM (inactive) | 206 µM (inactive) | 143 µM (inactive) | 125 µM (inactive) | 159 µM (inactive) | 188 µM (inactive) | 184 µM (inactive)
NC(=O)Nc1cc(O)ccc1/N=N/c1ccc(S(=O)(=O)Nc2ccccn2)cc1 | > 100 µM (inactive) | > 100 µM (inactive) | > 100 µM (inactive) | > 100 µM (inactive) | > 100 µM (inactive) | > 100 µM (inactive) | > 100 µM (inactive) | > 100 µM (inactive) | > 100 µM (inactive) | > 100 µM (inactive) | > 100 µM (inactive) | > 100 µM (inactive) | > 100 µM (inactive) | > 100 µM (inactive) | > 100 µM (inactive) | > 100 µM (inactive) | > 100 µM (inactive) | > 100 µM (inactive) | > 100 µM (inactive) | > 100 µM (inactive)
COc1ccc(N2C(=O)C3c4[nH]c5cc(C)ccc5c4C4CCC(C(C)(C)C)CC4C3C2=O)cc1 (stereo unspecified) | 9.1 µM (inactive) | > 10 µM (inactive) | > 10 µM (inactive) | > 10 µM (inactive) | 7.08 µM (inactive) | > 10 µM (inactive) | 7.6 µM (inactive) | > 10 µM (inactive) | > 10 µM (inactive) | 2.59 µM (inactive) | > 10 µM (inactive) | – | > 10 µM (inactive) | 6.19 µM (inactive) | > 10 µM (inactive) | 5.75 µM (inactive) | > 10 µM (inactive) | > 10 µM (inactive) | 4.36 µM (inactive) | > 10 µM (inactive)
NC(=S)N/N=C/c1ccc(OC(=O)COc2ccccc2Cl)cn1 | 56.4 µM (inactive) | 26.5 µM (inactive) | 23.2 µM (inactive) | 31 µM (inactive) | > 62.7 µM (inactive) | 44.4 µM (inactive) | 20.5 µM (inactive) | 44.6 µM (inactive) | 44.2 µM (inactive) | > 54.6 µM (inactive) | 48 µM (inactive) | 50.1 µM (inactive) | 36.8 µM (inactive) | 14.6 µM (inactive) | 65 µM (inactive) | 17.9 µM (inactive) | 75.7 µM (inactive) | 12.9 µM (inactive) | 32.4 µM (inactive) | > 93.1 µM (inactive)
